What is called IC50 is the concentration needed to halve the response being measured.

Each structure is given as a SMILES string. Calls of active or inactive are those of the source. The calls are words filed in the database; no cut-off is given here.

The subject of experiment [1] is Epidermal growth factor receptor (Homo sapiens), P00533 [L858R,T790M,C797S]. As to the kind of experiment: (§1) Inhibition of recombinant human C-terminal His-tagged/N-terminal GST-tagged EGFR (668 to 1210 residues) T790M/L858R/C797S mutant expressed in baculovirus expression system using poly (Glu,Tyr) 4:1 as substrate incubated for 1 hr in presence of ATP by ELISA. Background: In an ELISA, binding on a coated surface is turned into a signal by an enzyme label.

Experiment [2] deals with BaF3. Put plainly: Cytotoxicity against mouse BAF3 cells incubated for 72 hrs by resazurin dye based assay. The following applies: BaF3, 72 h. The experiment is classed as cell-based. On the technique in general: Alamar Blue is a resazurin reagent that responds to reducing activity.
The next experiment has as its system NCI-H1975. As to the kind of experiment: Antiproliferative activity human NCI-H1975 cells incubated for 72 hrs by SRB assay. It counts as functional, cell-based. The following applies: NCI-H1975, 72 h. In general terms: The SRB assay estimates cell density from bound dye.
In another experiment the test system is A-431. As to the kind of experiment: Antiproliferative activity human A431 cells incubated for 72 hrs by SRB assay. The experiment is classed as functional, cell-based. The following applies: A-431, 72 h.
For experiment [3], the system named is BaF3. Put plainly: Antiproliferative activity against mouse BAF3 cells transfected with EGFR L858R/T790M/C797S mutant (unknown origin) incubated for 72 hrs by resazurin dye based assay. The experiment is classed as functional, cell-based. The following applies: BaF3, 72 h.
The target in experiment [4] is Epidermal growth factor receptor (Homo sapiens, UniProt P00533, C797S/L858R/T790M). The experiment is described as §1.
Epidermal growth factor receptor, sequence (P00533 whole entry T790M/C797S/L858R): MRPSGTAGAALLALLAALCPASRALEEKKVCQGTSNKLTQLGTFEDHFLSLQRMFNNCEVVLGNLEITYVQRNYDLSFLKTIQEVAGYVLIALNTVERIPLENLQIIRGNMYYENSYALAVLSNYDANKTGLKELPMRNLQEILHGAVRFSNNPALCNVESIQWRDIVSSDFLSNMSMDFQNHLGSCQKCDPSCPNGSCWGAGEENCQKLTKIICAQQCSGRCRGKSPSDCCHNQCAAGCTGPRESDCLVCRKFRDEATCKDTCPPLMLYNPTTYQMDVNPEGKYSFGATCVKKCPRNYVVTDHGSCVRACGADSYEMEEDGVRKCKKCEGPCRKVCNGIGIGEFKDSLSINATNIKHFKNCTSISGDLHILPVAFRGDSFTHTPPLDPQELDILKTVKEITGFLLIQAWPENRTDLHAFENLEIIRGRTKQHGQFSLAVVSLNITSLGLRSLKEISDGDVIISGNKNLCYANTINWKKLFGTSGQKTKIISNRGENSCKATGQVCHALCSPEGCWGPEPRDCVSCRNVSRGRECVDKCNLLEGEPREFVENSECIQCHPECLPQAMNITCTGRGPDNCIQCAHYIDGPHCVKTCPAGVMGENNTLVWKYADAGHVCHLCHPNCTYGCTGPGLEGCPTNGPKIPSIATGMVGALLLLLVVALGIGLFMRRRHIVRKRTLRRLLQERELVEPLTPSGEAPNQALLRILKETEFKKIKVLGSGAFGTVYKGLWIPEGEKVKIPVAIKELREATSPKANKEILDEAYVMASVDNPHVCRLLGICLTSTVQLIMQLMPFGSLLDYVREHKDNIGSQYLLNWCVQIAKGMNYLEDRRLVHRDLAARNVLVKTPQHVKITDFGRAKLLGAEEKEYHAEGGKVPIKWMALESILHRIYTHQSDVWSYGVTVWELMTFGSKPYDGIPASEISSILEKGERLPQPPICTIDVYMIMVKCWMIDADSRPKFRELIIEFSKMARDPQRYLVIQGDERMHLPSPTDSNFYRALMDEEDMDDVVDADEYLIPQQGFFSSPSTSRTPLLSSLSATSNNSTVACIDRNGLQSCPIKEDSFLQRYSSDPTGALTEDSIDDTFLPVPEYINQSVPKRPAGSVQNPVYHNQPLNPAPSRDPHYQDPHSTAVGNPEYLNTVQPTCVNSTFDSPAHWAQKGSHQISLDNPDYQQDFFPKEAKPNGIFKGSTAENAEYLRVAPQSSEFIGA
Experiment [5] relates to Epidermal growth factor receptor (Homo sapiens), P00533 [L858R,T790M]. As to the kind of experiment: Inhibition of human EGFR T790M/L858R mutant using poly (Glu,Tyr) 4:1 as substrate incubated for 1 hr in presence of ATP by ELISA.
Epidermal growth factor receptor (Homo sapiens), P00533 [L858R,T790M], sequence (P00533 whole entry T790M/L858R, looked up): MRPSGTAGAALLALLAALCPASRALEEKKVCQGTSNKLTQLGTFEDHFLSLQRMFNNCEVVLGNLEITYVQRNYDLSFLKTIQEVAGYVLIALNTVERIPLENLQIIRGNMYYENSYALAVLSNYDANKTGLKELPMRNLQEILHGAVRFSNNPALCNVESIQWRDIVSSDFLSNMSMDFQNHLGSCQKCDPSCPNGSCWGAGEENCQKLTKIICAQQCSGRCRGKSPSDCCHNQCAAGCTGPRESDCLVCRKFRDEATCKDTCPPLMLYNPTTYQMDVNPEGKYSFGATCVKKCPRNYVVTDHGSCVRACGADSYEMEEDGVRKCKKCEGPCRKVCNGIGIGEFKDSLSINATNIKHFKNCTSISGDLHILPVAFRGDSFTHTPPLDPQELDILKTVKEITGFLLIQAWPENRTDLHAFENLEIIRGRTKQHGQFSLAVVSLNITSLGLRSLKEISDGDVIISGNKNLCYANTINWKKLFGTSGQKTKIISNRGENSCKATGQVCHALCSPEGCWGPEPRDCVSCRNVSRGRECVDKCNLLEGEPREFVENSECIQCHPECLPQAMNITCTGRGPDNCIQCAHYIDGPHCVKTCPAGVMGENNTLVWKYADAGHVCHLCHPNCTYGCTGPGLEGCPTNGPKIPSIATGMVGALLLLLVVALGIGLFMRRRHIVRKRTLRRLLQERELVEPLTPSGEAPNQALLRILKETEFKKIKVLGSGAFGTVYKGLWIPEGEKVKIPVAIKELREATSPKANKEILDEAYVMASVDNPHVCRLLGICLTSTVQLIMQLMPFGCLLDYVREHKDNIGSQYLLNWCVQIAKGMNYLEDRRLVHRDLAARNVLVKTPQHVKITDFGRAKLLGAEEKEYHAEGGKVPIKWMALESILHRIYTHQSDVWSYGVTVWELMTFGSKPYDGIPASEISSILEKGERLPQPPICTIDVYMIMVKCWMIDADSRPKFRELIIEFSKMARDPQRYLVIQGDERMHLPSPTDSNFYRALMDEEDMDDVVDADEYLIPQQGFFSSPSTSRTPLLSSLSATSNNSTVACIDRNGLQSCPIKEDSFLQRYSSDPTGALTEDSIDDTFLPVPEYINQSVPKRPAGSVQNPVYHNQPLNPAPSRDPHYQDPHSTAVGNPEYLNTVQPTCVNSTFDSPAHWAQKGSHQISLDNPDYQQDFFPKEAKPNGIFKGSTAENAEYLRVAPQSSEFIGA

Epidermal growth factor receptor (Homo sapiens), P00533 [L858R,T790M,C797S], sequence (P00533 whole entry T790M/C797S/L858R, the tested form may be a part): as the sequence (P00533 whole entry T790M/C797S/L858R) above

As to `COc1cc2ncnc(Nc3ccc(NC(=O)C(c4ccccc4)N4Cc5ccccc5C4=O)cc3F)c2cc1OCN1CCOCC1` (stereo not drawn), the inhibition entry in experiment [1] was “Active”.
The compound `O=C(Nc1nccs1)C(c1cc(F)ccc1O)N1Cc2ccccc2C1=O` (stereo not drawn) yielded an IC50 with BaF3 [2] of more than 10 µM.
With `COc1cc2c(Nc3cc(NC(=O)c4ccccc4)ccc3F)ncnc2cc1OCC1CCN(C)CC1`, the inhibition entry in experiment [1] was “inactive”.
Consider `COc1cc2c(Nc3ccc(NC(=O)C(c4ccccc4)C(C)C)cc3F)ncnc2cc1OCC1CCN(C)CC1` (stereo not drawn), for which the inhibition entry in experiment [1] is “inactive”.
On to `COc1cc2c(Nc3ccc(NC(=O)Cc4ccccc4)cc3F)ncnc2cc1OCC1CCN(C)CC1`, for which the inhibition result in experiment [1] is “inactive”.
Still for that read-out and setting: next, `COc1cc2c(Nc3cc(NC(=O)Cc4ccccc4)ccc3F)ncnc2cc1OCC1CCN(C)CC1`: “inactive”; `COc1cc2c(Nc3ccc(NC(=O)C(C)c4ccccc4)cc3F)ncnc2cc1OCC1CCN(C)CC1` (stereo not drawn): “inactive”.
As for `C=CC(=O)Nc1cc(Nc2nccc(-c3cn(C)c4ccccc34)n2)c(OC)cc1N(C)CCN(C)C` [OSIMERTINIB], the 50% inhibitory concentration (IC50) in the experiment on NCI-H1975 amounted to […]; with BaF3 [2] it was 5.11 µM; with A-431, […]; in the experiment on BaF3 [3] it was 3.93 µM.
With `COc1cc2c(Nc3ccc(NC(=O)c4ccccc4)cc3F)ncnc2cc1OCC1CCN(C)CC1`, the inhibition entry in experiment [1] was “inactive”.
`COc1cc2c(Nc3ccc(NC(=O)C(c4ccccc4)N4Cc5ccccc5C4=O)cc3F)ncnc2cc1OCC1CCN(C)CC1` (stereo not drawn): the half-inhibitory concentration (IC50) in experiment [4] was determined as 0.0093 µM.
Take `COc1cc2c(Nc3ccc(NC(=O)C(C4CCCCC4)N4Cc5ccccc5C4=O)cc3F)ncnc2cc1OCC1CCN(C)CC1` (stereo not drawn): the IC50 in experiment [4] is 0.18 µM.
Consider `COc1cc2c(Nc3ccc(NC(=O)CC4Cc5ccccc5C4)cc3F)ncnc2cc1OCC1CCN(C)CC1`, for which, in experiment [1], the inhibition entry is “inactive”.
`COc1cc2c(Nc3cc(NC(=O)C(c4ccccc4)N4Cc5ccccc5C4=O)ccc3F)ncnc2cc1OCC1CCN(C)CC1` (stereo not drawn): in experiment [4], the IC50 was 0.0371 µM.
As for `COc1cc2nc(N)nc(Nc3ccc(NC(=O)C(c4ccccc4)N4Cc5ccccc5C4=O)cc3F)c2cc1OC` (stereo not drawn), the inhibition result in experiment [5] and in experiment [1] was “inactive” in each case.
Consider `COc1cc2c(Nc3ccc(NC(=O)C(c4ccccc4)c4ccccc4)cc3F)ncnc2cc1OCC1CCN(C)CC1`, for which the inhibition entry in experiment [1] was “inactive”.
Turning to `COc1cc2c(Nc3cc(NC(=O)CC4Cc5ccccc5C4)ccc3F)ncnc2cc1OCC1CCN(C)CC1`, in experiment [1], the inhibition entry was “inactive”.
Take `COc1cc2ncnc(Nc3ccc(NC(=O)C(c4ccccc4)N4Cc5ccccc5C4=O)cc3F)c2cc1OCCCN1CCOCC1` (stereo not drawn): the inhibition result in experiment [1] is “Active”.
Compound `COc1cc(N2CCC(N3CCN(C)CC3)CC2)ccc1Nc1ncc(Cl)c(Nc2ccccc2P(C)(C)=O)n1` [BRIGATINIB] gave a half-inhibitory concentration (IC50) with BaF3 [2] of 7.31 µM.
Take `COc1cc2ncnc(Nc3ccc(NC(=O)C(c4ccccc4)N4Cc5ccccc5C4=O)cc3F)c2cc1OC` (stereo not drawn): the inhibition result in experiment [1] was “Active”.

Values taken from ChEMBL document CHEMBL4396901, “Discovery of Potent and Noncovalent Reversible EGFR Kinase Inhibitors of EGFRL858R/T790M/C797S” (ACS Med Chem Lett, 2019).
